Consider 27 molecules from patent US8729089B2 (Gilead Sciences, Inc., priority 2006, dated 2014).

Structures are written as SMILES.

In data set [1] the test system is HCV replicon in human hepatoma Huh-7 cell line. As to the kind of experiment: Anti-HCV replicon assay (EC50, luciferase). It counts as cell-based. The following applies: Hepatitis C virus, Huh-7, 72 h. Put shortly: (§1)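 Huh-7 cells carrying an HCV replicon (6000/well) exposed to 3-fold serial compound dilutions for 3 days at 37 °C, final DMSO 0.5% where used. EC50 read as replicon luciferase luminescence after cell lysis; CC50 from CellTiter-Glo luminescence after 10 min at room temperature.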
Background: Replicon systems follow genome replication, usually without infectious particles.

The nature of data set [2]: CC50 assay (CellTiter-Glo) in Huh-7 HCV replicon cells. The format is cell-based, human. Conditions: human, 3 days incubation, CellTiter-Glo readout. In outline:
as §1
For orientation: Cellular ATP, detected with luciferase, serves as a proxy for viable cell number.

The term EC50 denotes the concentration at which the effect is half-maximal. The term CC50 denotes the concentration giving 50% cytotoxicity.

As for `NC(=O)c1ccc(CNc2nc(NCC(F)(F)F)c3nc(-c4ccc(F)cc4)ccc3n2)cc1` [Example 261, 4-{[6-(4-Fluoro-phenyl)-4-(2,2,2-trifluoro-ethylamino)-pyrido[3,2-d]pyrimidin-2-ylamino]-methyl}-benzamide], the concentration giving a half-maximal response (EC50) in data set [1] was less than 0.1 µM. The CC50 at 3 days in data set [2] is less than 5 µM.

In data set [1], `NC(=O)CCNc1nc(NCC(F)(F)F)c2nc(-c3ccc(F)cc3)ccc2n1` [Example 260, 3-[6-(4-Fluoro-phenyl)-4-(2,2,2-trifluoro-ethylamino)-pyrido[3,2-d]pyrimidin-2-ylamino]-propionamide] yielded an EC50 of less than 0.1 µM. Moreover, in data set [2], the half-maximal cytotoxic concentration (CC50) at 3 days was in the range of 5 to 25 µM.

For `CCOc1nc(NCc2ccc(S(N)(=O)=O)cc2)nc2ccc(-c3ccc(S(N)(=O)=O)cc3)nc12` [Example 134, 4-{[4-Ethoxy-6-(4-(aminosulfonyl)-phenyl)-pyrido[3,2-d]pyrimidin-2-ylamino]-methyl}-benzenesulfonamide], the EC50 in data set [1] is less than 0.1 µM. Moreover, the half-maximal cytotoxic concentration (CC50) at 3 days in data set [2] was in the range of 5 to 25 µM.

For the molecule `CCOc1nc(NCc2ccc(F)cc2)nc2ccc(-c3ccc(NC(=O)[C@H]4CCNC4)c(F)c3)nc12` [Example 90, Pyrrolidine-3-carboxylic acid {4-[4-ethoxy-2-(4-fluoro-benzylamino)-pyrido[3,2-d]pyrimidin-6-yl]-2-fluoro-phenyl}-amide], in data set [1], the EC50 is less than 0.1 µM. Moreover, in data set [2], the CC50 at 3 days was less than 5 µM.

In turn, `CN(CCS(C)(=O)=O)c1nc(NCc2ccc(S(N)(=O)=O)cc2)nc2ccc(-c3ccc(F)cc3)nc12` [Example 152, 4-{[4-(N-(2-Methanesulfonylethyl)-N-methyl)-amino-6-(4-fluorophenyl)-pyrido[3,2-d]pyrimidin-2-ylamino]-methyl}-benzenesulfonamide] displayed an EC50 in data set [1] of less than 0.1 µM. In data set [2], this molecule displayed a CC50 at 3 days of less than 5 µM.

As for `CCOc1nc(NCc2ccc(F)cc2)nc2ccc(-c3cccc(NS(=O)(=O)N(C)C)c3)nc12` [Example 84, N′-{3-[4-Ethoxy-2-(4-fluoro-benzylamino)-pyrido[3,2-d]pyrimidin-6-yl]-phenyl}-N.N-dimethyl methanesulfonyl urea], in data set [1], the EC50 is less than 0.1 µM. Also, the CC50 at 3 days in data set [2] is less than 5 µM.

In turn, `CCOc1nc(NCc2ccc(S(N)(=O)=O)cc2)nc2ccc(-c3ccc(NC(=O)[C@@H](N)[C@H](C)O)cc3)nc12` [Example 226, 2-Amino-N-{4-[4-ethoxy-2-(4-sulfamoyl-benzylamino)-pyrido[3,2-d]pyrimidin-6-yl]-phenyl}-3-hydroxy-butyramide] gave a 50% effective concentration (EC50) in data set [1] of less than 0.1 µM. Further, the 50% cytotoxic concentration (CC50) at 3 days in data set [2] is more than 25 µM.

`CCOc1nc(NCc2ccc(F)c(Cl)c2)nc2ccc(-c3ccc(F)cc3)nc12` [Example 42, (3-Chloro-4-fluoro-benzyl)-[4-ethoxy-6-(4-fluoro-phenyl)-pyrido[3,2-d]pyrimidin-2-yl]-amine] registered a concentration for a half-maximal effect (EC50) in data set [1] of less than 0.1 µM. Besides, in data set [2], the CC50 at 3 days is 5 to 25 µM.

`CC(C)N1CCN(S(=O)(=O)c2cc(-c3ccc4nc(NCc5ccc(S(N)(=O)=O)cc5)nc(NCC(F)(F)F)c4n3)ccc2Cl)CC1` [Example 196, 4-{[6-[4-Chloro-3-(4-isopropyl-piperazine-1-sulfonyl)-phenyl]-4-(2,2,2-trifluoro-ethylamino)-pyrido[3,2-d]pyrimidin-2-ylamino]-methyl}-benzenesulfonamide] gave an EC50 in data set [1] of less than 0.1 µM. This molecule had a half-maximal cytotoxic concentration (CC50) at 3 days in data set [2] of less than 5 µM.

As for `COCCNc1nc(NCC(F)(F)F)c2nc(-c3ccc(F)cc3)ccc2n1` [Example 252, 6-(4-Fluoro-phenyl)-N2-(2-methoxy-ethyl)-N4-(2,2,2-trifluoro-ethyl)-pyrido[3,2-d]pyrimidine-2,4-diamine], the EC50 in data set [1] was less than 0.1 µM. This molecule came in with a CC50 at 3 days in data set [2] of 5 to 25 µM.

`CCOc1nc(NCc2ccc(F)cc2)nc2ccc(-c3ccc(NC(=O)N4CCOCC4)cc3)nc12` [Example 72, Morpholine-4-carboxylic acid {4-[4-ethoxy-2-(4-fluoro-benzylamino)-pyrido[3,2-d]pyrimidin-6-yl]-phenyl}-amide]: the EC50 in data set [1] was less than 0.1 µM. This molecule came in with a CC50 at 3 days in data set [2] of 5 to 25 µM.

Regarding `NS(=O)(=O)c1ccc(CNc2nc(NCC(F)(F)F)c3nc(-c4ccc(NC(=O)[C@H]5CCNC5)c(F)c4)ccc3n2)cc1` [Example 219, Pyrrolidine-3-carboxylic acid {2-fluoro-4-[2-(4-sulfamoyl-benzylamino)-4-(2,2,2-trifluoro-ethylamino)-pyrido[3,2-d]pyrimidin-6-yl]-phenyl}-amide], the concentration giving a half-maximal response (EC50) in data set [1] was less than 0.1 µM. This molecule yielded a cytotoxic concentration (CC50) at 3 days in data set [2] of less than 5 µM.

In data set [1], `NS(=O)(=O)c1ccc(CNc2nc(C3CC3)c3nc(-c4cccc(S(N)(=O)=O)c4)ccc3n2)cc1` [Example 291, 4-{[4-Cyclopropyl-6-(3-(aminosulfonyl)-phenyl)-pyrido[3,2-d]pyrimidin-2-ylamino]-methyl}-benzenesulfonamide] yielded a half-maximal effective concentration (EC50) of less than 0.1 µM. Moreover, the CC50 at 3 days in data set [2] was less than 5 µM.

Consider `CC(C)Nc1nc(NCc2cccnc2)nc2ccc(-c3ccc(F)cc3)nc12` [Example 54, 6-(4-Fluoro-phenyl)-N4-isopropyl-N2-pyridin-3-ylmethyl-pyrido[3,2-d]pyrimidine-2,4-diamine], for which the concentration giving a half-maximal response (EC50) in data set [1] is 0.1 to 0.25 µM. Besides, the CC50 at 3 days in data set [2] lay in the range of 5 to 25 µM.

As for `CC(C)Nc1nc(NCCN2CCOCC2)nc2ccc(-c3ccc(F)cc3)nc12` [Example 56, 6-(4-Fluoro-phenyl)-N4-isopropyl-N2-(2-morpholin-4-yl-ethyl)-pyrido[3,2-d]pyrimidine-2,4-diamine], the 50% effective concentration (EC50) in data set [1] lay in the range of 0.25 to 2 µM. Besides, in data set [2], the CC50 at 3 days lay within 5 to 25 µM.

For the molecule `CCOc1nc(NCc2ccc(F)cc2)nc2ccc(-c3ccc(NC(=O)C4(N)CC4)cc3)nc12` [Example 99, 1-Amino-cyclopropanecarboxylic acid {4-[4-ethoxy-2-(4-fluoro-benzylamino)-pyrido[3,2-d]pyrimidin-6-yl]-phenyl}-amide], the half-maximal effective concentration (EC50) in data set [1] was less than 0.1 µM. In data set [2], this molecule gave a CC50 at 3 days of less than 5 µM.

`CCOc1nc(NCc2ccc(S(N)(=O)=O)cc2)nc2ccc(-c3ccc(NC(N)=O)cc3)nc12` [Example 130, 4-{[4-Ethoxy-6-(4-ureidophenyl)-pyrido[3,2-d]pyrimidin-2-ylamino]-methyl}-benzenesulfonamide] showed an EC50 in data set [1] of less than 0.1 µM. Also, the half-maximal cytotoxic concentration (CC50) at 3 days in data set [2] lay within 5 to 25 µM.

Molecule `CS(=O)(=O)CCNc1nc(NCc2ccc(S(N)(=O)=O)cc2)nc2ccc(-c3ccc(NC(=O)C4(O)CC4)cc3)nc12` [Example 155, 4-{[4-(2-Methanesulfonylethyl)-amino-6-(4-((1-hydroxy-1-cyclopropyl)-carboxamido)-phenyl)-pyrido[3,2-d]pyrimidin-2-ylamino]-methyl}-benzenesulfonamide] gave an EC50 in data set [1] of 0.1 to 0.25 µM. The molecule also yielded a CC50 at 3 days in data set [2] of more than 25 µM.

Molecule `CCOc1nc(NCc2ccc(F)cc2)nc2ccc(-c3cnc(NC(=O)C4CC4)nc3)nc12` [Example 80, Cyclopropanecarboxylic acid {5-[4-ethoxy-2-(4-fluoro-benzylamino)-pyrido[3,2-d]pyrimidin-6-yl]-pyrimidin-2-yl}-amide] registered a concentration giving a half-maximal response (EC50) in data set [1] of less than 0.1 µM. Also, in data set [2], the CC50 at 3 days is 5 to 25 µM.

In turn, `CCOc1nc(NCc2ccc(F)cc2)nc2ccc(-c3cccc(N(CCO)S(C)(=O)=O)c3)nc12` [Example 102, N-{3-[4-Ethoxy-2-(4-fluoro-benzylamino)-pyrido[3,2-d]pyrimidin-6-yl]-phenyl}-N-(2-hydroxy-ethyl)-methanesulfonamide] registered a concentration giving a half-maximal response (EC50) in data set [1] of less than 0.1 µM. In addition, in data set [2], the cytotoxic concentration (CC50) at 3 days lay in the range of 5 to 25 µM.

In data set [1], `CCOc1nc(NCc2ccc(F)cc2)nc2ccc(-c3ccc(NC(=O)C(C)(C)N)cc3)nc12` [Example 105, 2-Amino-N-{4-[4-ethoxy-2-(4-fluoro-benzylamino)-pyrido[3,2-d]pyrimidin-6-yl]-phenyl}-2-methyl-propionamide] yielded an EC50 of less than 0.1 µM. Moreover, the CC50 at 3 days in data set [2] was less than 5 µM.

Molecule `CCOc1nc(NCc2ccc(S(N)(=O)=O)cc2)nc2ccc(-c3ccc(F)c(Cl)c3)nc12` [Example 127, 4-{[4-Ethoxy-6-(3-chloro-4-fluorophenyl)-pyrido[3,2-d]pyrimidin-2-ylamino]-methyl}-benzenesulfonamide] gave an EC50 in data set [1] of less than 0.1 µM. Further, the CC50 at 3 days in data set [2] is less than 5 µM.

Take `COC(=O)Nc1ccc(-c2ccc3nc(NCc4ccc(S(N)(=O)=O)cc4)nc(NCC(F)(F)F)c3n2)cc1` [Example 211, {4-[2-(4-Sulfamoyl-benzylamino)-4-(2,2,2-trifluoro-ethylamino)-pyrido[3,2-d]pyrimidin-6-yl]-phenyl}-carbamic acid methyl ester]: in data set [1], the half-maximal effective concentration (EC50) was less than 0.1 µM. The molecule further registered a CC50 at 3 days in data set [2] of 5 to 25 µM.

`C[C@H](N)C(=O)Nc1ccc(-c2ccc3nc(NCc4ccc(S(N)(=O)=O)cc4)nc(NCC(F)(F)F)c3n2)cc1Cl` [Example 207, 2-Amino-N-{2-chloro-4-[2-(4-sulfamoyl-benzylamino)-4-(2,2,2-trifluoro-ethylamino)-pyrido[3,2-d]pyrimidin-6-yl]-phenyl}-propionamide] gave an EC50 in data set [1] of less than 0.1 µM. The CC50 at 3 days in data set [2] was less than 5 µM.

Molecule `NC(=O)CCNc1nc(NCc2ccc(F)cc2)nc2ccc(-c3ccc(F)cc3)nc12` [Example 24, 3-[2-(4-Fluoro-benzylamino)-6-(4-fluoro-phenyl)-pyrido[3,2-d]pyrimidin-4-ylamino]-propionamide] showed an EC50 in data set [1] of less than 0.1 µM. For the same molecule, the CC50 at 3 days in data set [2] was 5 to 25 µM.

`NS(=O)(=O)c1ccc(CNc2nc(NCC(F)(F)F)c3nc(-c4ccc(Cl)c(S(=O)(=O)NC5CCNCC5)c4)ccc3n2)cc1` [Example 200, 2-Chloro-N-piperidin-4-yl-5-[2-(4-sulfamoyl-benzylamino)-4-(2,2,2-trifluoro-ethylamino)-pyrido[3,2-d]pyrimidin-6-yl]-benzenesulfonamide] came in with a 50% effective concentration (EC50) in data set [1] of less than 0.1 µM. Also, the CC50 at 3 days in data set [2] is less than 5 µM.

In data set [1], `CCOc1nc(NCc2ccc(F)cc2)nc2ccc(-c3cnc(N)cn3)nc12` [Example 62, [6-(5-Amino-pyrazin-2-yl)-4-ethoxy-pyrido[3,2-d]pyrimidin-2-yl]-(4-fluoro-benzyl)-amine] had an EC50 of less than 0.1 µM. The molecule further displayed a CC50 at 3 days in data set [2] of more than 25 µM.
